Experimental data reported in ChEMBL document CHEMBL3271973, “Synthesis and biological activities of 5-trifluoromethyl-5'-azido-2',5'-dideoxyuridine and 5-trifluoromethyl-5'-amino-2',5'-dideoxyuridine” (J Med Chem, 1976).
Active and inactive are the calls of the source. The rule behind the calls is not given here.

Key:
[1] = Antiviral activity against HSV1 CL-101 infected in African green monkey Vero cells assessed as reduction of viral titer at 200 uM after 40 hrs; format: functional, Herpes simplex virus (type 1 / strain CL101)
[2] = tested on: Sarcoma-180; experiment: Cytotoxicity against mouse Sarcoma 180 cells after 1 to 3 days by coulter counter analysis; format: functional, cell-based
[3] = Therapeutic index, ratio of cytotoxicity against African green monkey Vero cells to antiviral activity against HSV1 CL-101; format: cell-based; details: read-out: TI
[4] = Antiviral activity against HSV1 CL-101 infected in African green monkey Vero cells assessed as reduction of viral titer at 50 uM after 40 hrs; format: functional, Herpes simplex virus (type 1 / strain CL101)
[5] = tested on: Vero; experiment: Cytotoxicity against African green monkey Vero cells at 1 uM after 3 days by haemocytometer analysis; format: cell-based; details: chlorocebus sabaeus, 72 h

| Compound | Activity [1] | Activity [2] | selectivity ratio [3] | Activity [4] [×10⁵ PFU] | Activity [5] |
| --- | --- | --- | --- | --- | --- |
| [N-]=[N+]=NC[C@H]1O[C@@H](n2cc(C(F)(F)F)c(=O)[nH]c2=O)C[C@@H]1O | 1.7 ×10⁶ PFU | Active | – | – | – |
| NC[C@H]1O[C@@H](n2cc(C(F)(F)F)c(=O)[nH]c2=O)C[C@@H]1O | 1 ×10⁵ PFU | Active | 10 | – | – |
| O=c1[nH]c(=O)n([C@H]2C[C@H](O)[C@@H](CO)O2)cc1C(F)(F)F [TRIFLURIDINE] | – | Active | – | 1.5 | Toxic |
